This note sets out measurements from patent publication US11999742B2, “Substituted pyrrolo[1,2-b]pyridazines as anthelmintics” (BOEHRINGER INGELHEIM VETMEDICA GMBH, priority 2021, dated 2024).

The test system of test [1] is Haemonchus contortus L1 larvae. Briefly: Haemonchus contortus larval development L1 to L3, 4 days, dose response. Conditions: 96 h, read-out: EC50, development of H. contortus larvae from L1 to L3.
Excerpt: Biological Example 2: Screening Method to Test Activity of Compounds Against Haemonchus contortus
Test [2] concerns L4 stage larvae of Dirofilaria immitis. Kind of test: Motility of L4 stage Dirofilaria immitis larvae, 3 days, dose response. Conditions: 72 h, read-out: EC50, motility of L4 stage D. immitis, three days at 37° C., 5% CO2, vs DMSO control. In kind it is cell-based.
The subject of test [3] is Microfilaria of Dirofilaria immitis. Briefly: Motility of Dirofilaria immitis microfilariae in microtiter plate, 3 days, dose response. Format: cell-based. The note with it: 72 h, read-out: EC50, motility of D. immitis microfilaria, three days at 37° C., 5% CO2, vs DMSO control.

As a reminder, the EC50 is the concentration needed to bring the measured effect to its halfway point. Regarding `Cc1cc2c(N(C)C)c(C(=O)N[C@H]3CCOc4ccccc43)cnn2c1-c1cc(F)cc(Cl)c1Cl` [Compound A493, 7-(2,3-dichloro-5-fluorophenyl)-N-[(4S)-3,4-dihydro-2H-1-benzopyran-4-yl]-4-(dimethylamino)-6-methylpyrrolo[1,2-b]pyridazine-3-carboxamide], the EC50 in test [1], in test [2] and in test [3] was under 10 nM in each case. For the compound `Cc1cc2c(N3CC(C)(C)C3)c(C(=O)N[C@H]3CCOc4ccccc43)cnn2c1-c1cc(F)cc(Cl)c1Cl` [Compound A564], the EC50 in test [2] and in test [3] was 1000 to 10000 nM each time. As to `Cc1cc2c(C(C)C)c(NC(=O)[C@H]3CCOc4ccccc43)cnn2c1-c1cc(Cl)cc(Cl)c1` [Compound A462], the EC50 lay within 100 to 1000 nM in test [1], 10 to 100 nM in test [2] and 10 to 100 nM in test [3]. Turning to `CC(C)(C)c1c(C(=O)N[C@H]2CCOc3ccccc32)cnn2c(-c3cc(Cl)cc(Cl)c3)c(C(F)(F)F)cc12` [Compound A483], the EC50 in test [1] is 10 to 100 nM; in test [2] it was under 10 nM; in test [3] it was 10 to 100 nM. In the case of `Cc1cc2c(C(C)(C)C)c(C(=O)N[C@H]3CCOc4ccccc43)cnn2c1-c1c(Cl)cc(F)cc1Cl` [Compound A487], the EC50 in test [1] is 10 to 100 nM; in test [2], under 10 nM; in test [3], 10 to 100 nM. On to `CC(C)c1c(C(=O)N[C@H]2CCOc3ccccc32)cnn2c(-c3cc(Cl)cc(Cl)c3)c(F)cc12` [Compound A466], for which the EC50 lay in the range of 100 to 1000 nM in test [1], 10 to 100 nM in test [2] and 10 to 100 nM in test [3]. With `Cc1cc2c(N3CCOCC3)c(C(=O)N[C@H]3CCOc4ccccc43)cnn2c1-c1cc(F)cc(F)c1F` [Compound A491], the EC50 in test [2] and in test [3] was under 10 nM throughout. As to `Cc1cc2c(N3CC(C)(F)C3)c(C(=O)N[C@H]3CCOc4ccccc43)cnn2c1-c1cc(F)cc(Cl)c1Cl` [Compound A562], the EC50 in test [2] and in test [3] was 1000 to 10000 nM each time. For the compound `Cc1cc2c(C(C)(C)C)c(C(=O)N[C@H]3CCc4ncccc43)cnn2c1-c1cc(F)cc(Cl)c1Cl` [Compound A559], the EC50 in test [1], in test [2] and in test [3] was 10 to 100 nM each time. With `Cc1cc2c(N3CCOCC3)c(C(=O)N[C@H]3CCOc4ccccc43)cnn2c1-c1cc(Cl)cc(Cl)c1` [Compound A499], the results for the EC50 in test [1], in test [2] and in test [3] were 10 to 100 nM, under 10 nM and under 10 nM, respectively. On to `CC(C)c1c(C(=O)N[C@H]2CCOc3ccccc32)cnn2c(-c3cc(Cl)cc(Cl)c3)cc(Cl)c12` [Compound A467], for which the EC50 in test [2] and in test [3] was 100 to 1000 nM throughout. For `Cc1cc2c(C(C)(C)C)c(C(=O)N[C@H]3CCCc4cnn(C(C)C)c43)cnn2c1-c1cc(F)cc(Cl)c1Cl` [Compound A546], the EC50 in test [2] is 1000 to 10000 nM. `CC1(C)CN(c2c(C(=O)N[C@H]3CCOc4ccccc43)cnn3c(-c4cc(F)cc(Cl)c4Cl)c(Cl)cc23)C1` [Compound A567]: the EC50 in test [1] lay in the range of 1000 to 10000 nM; in test [2], 100 to 1000 nM; in test [3], 1000 to 10000 nM. As to `Cc1cc2c(C(C)(C)C)c(C(=O)N[C@H]3CCc4scnc43)cnn2c1-c1cc(F)cc(Cl)c1Cl` [Compound A540], the EC50 in test [1] is 10 to 100 nM; in test [2] it was 10 to 100 nM; in test [3] it was under 10 nM. Take `Cc1cc2c(C(C)C)c(C(=O)Nc3cccc4ccccc34)cnn2c1-c1cc(Cl)cc(Cl)c1` [Compound A521]: the EC50 in test [2] lay within 100 to 1000 nM.

Turning to `Cc1cc(-c2cc(Cl)cc(Cl)c2)n2ncc(C(=O)N[C@H]3CCOc4ccccc43)c(C(C)C)c12` [Compound A469], the EC50 in test [2] and in test [3] was 10 to 100 nM each time.

With `Cc1cc2c(C(C)(C)C)c(C(=O)N[C@H]3CCCc4cc(F)ccc43)cnn2c1-c1cc(F)cc(Cl)c1Cl` [Compound A538], the EC50 in test [2] and in test [3] was 1000 to 10000 nM in each case.

As to `Cc1cc2c(N(C)C)c(C(=O)N[C@H]3CCOc4ccccc43)cnn2c1-c1cc(Cl)cc(Cl)c1Cl` [Compound A568], the EC50 in test [1] and in test [3] was under 10 nM throughout. `Cc1cc2c(C(C)(C)C)c(C(=O)N[C@H]3CCOc4ccccc43)cnn2c1-c1cc(Cl)cc(Cl)c1Cl` [Compound A472]: the concentration for a half-maximal effect (EC50) in test [1] and in test [3] was under 10 nM throughout. `Cc1cc2c(C(C)(C)C)c(C(=O)N(C)[C@H]3CCOc4ccccc43)cnn2c1-c1cc(F)cc(Cl)c1Cl` [Compound A543, 4-tert-butyl-7-(2,3-dichloro-5-fluorophenyl)-N-[(4S)-3,4-dihydro-2H-1-benzopyran-4-yl]-N,6-dimethylpyrrolo[1,2-b]pyridazine-3-carboxamide]: the EC50 in test [2] and in test [3] was 1000 to 10000 nM throughout.

As to `Cc1cc2c(C(C)(C)C)c(C(=O)N[C@H]3CCOc4ccncc43)cnn2c1-c1cc(F)cc(Cl)c1Cl` [Compound A569], the EC50 in test [3] was under 10 nM. `Cc1cc2c(C(C)(C)C)c(C(=O)N[C@H]3CCOc4ccccc43)cnn2c1-c1cc(Cl)cc(Cl)c1` [Compound A464]: the EC50 in test [2] and in test [3] was under 10 nM in each case. On to `CC(C)c1c(C(=O)N[C@H]2CCOc3ccccc32)cnn2c(-c3cc(Cl)cc(Cl)c3)cc(C(F)(F)F)c12` [Compound A468], for which the EC50 in test [3] lay in the range of 1000 to 10000 nM. `Cc1cc2c(C(C)(C)C)c(C(=O)N[C@@H]3CCc4sc(Br)nc43)cnn2c1-c1cc(F)cc(Cl)c1Cl` [Compound A536b]: the EC50 in test [2] and in test [3] was 1000 to 10000 nM in each case. Turning to `Cc1cc2c(C(C)(C)C)c(C(=O)N[C@H]3CC4(CCCC4)Oc4ccccc43)cnn2c1-c1cc(F)cc(Cl)c1Cl` [Compound A548], the EC50 in test [2] and in test [3] was 1000 to 10000 nM each time. Take `Cc1cc2c(C(C)(C)C)c(C(=O)N[C@H]3CCOc4ccccc43)cnn2c1-c1cccc(Cl)c1Cl` [Compound A519]: the EC50 in test [2] and in test [3] was under 10 nM throughout. Turning to `Cc1cc2c(C(C)(C)C)c(C(=O)N[C@H]3CCn4cncc43)cnn2c1-c1cc(F)cc(Cl)c1Cl` [Compound A552], the EC50 in test [2] and in test [3] was 1000 to 10000 nM in each case. Consider `CC1(C)CN(c2c(C(=O)N[C@H]3CCOc4ccccc43)cnn3c(-c4cc(Cl)cc(Cl)c4Cl)c(Cl)cc23)C1` [Compound A515], for which, in test [1], the EC50 lay in the range of 1000 to 10000 nM. For `Cc1cc2c(C(C)(C)C)c(NC(=O)NC3CCCc4ncsc43)cnn2c1-c1cc(F)cc(Cl)c1Cl` (centres unmarked) [Compound A535], the EC50 in test [1] was 1000 to 10000 nM.

Consider `Cc1cc2c(C(C)C)c(C(=O)N[C@H]3CCOc4ccccc43)cnn2c1-c1cc(F)cc(Cl)c1Cl` [Compound A489], for which the EC50 in test [2] and in test [3] was under 10 nM in each case. As to `Cc1cc2c(C(C)(C)C)c(C(=O)N[C@H]3CCOc4ccccc43)cnn2c1N1CCOCC1` [Compound A529], the EC50 in test [2] was in the range of 100 to 1000 nM; in test [3], 1000 to 10000 nM. For `Cc1cc2c(C(C)(C)C)c(C(=O)NC3CCCc4sccc43)cnn2c1-c1cc(F)cc(Cl)c1Cl` (centres unmarked) [Compound A537], the EC50 is 10 to 100 nM in test [2] and under 10 nM in test [3]. For the compound `Cc1cc2c(N3CC(C)(F)C3)c(C(=O)N[C@H]3CCOc4ccccc43)cnn2c1-c1cc(Cl)cc(Cl)c1Cl` [Compound A508], in test [3], the EC50 was 1000 to 10000 nM.

As to `Cc1cc2c(N3CCOCC3)c(C(=O)N[C@H]3CCOc4ccccc43)cnn2c1-c1cc(F)cc(Cl)c1Cl` [Compound A490], the EC50 in test [2] and in test [3] was under 10 nM throughout. For `CN(C)c1c(C(=O)N[C@H]2CCOc3ccccc32)cnn2c(-c3cc(Cl)cc(Cl)c3)c(Cl)cc12` [Compound A475], the values for the EC50 in test [1] and in test [3] were 10 to 100 nM and 100 to 1000 nM, respectively. For the compound `Cc1cc2c(C(C)(C)C)c(C(=O)N[C@H]3CCc4cnccc43)cnn2c1-c1cc(F)cc(Cl)c1Cl` [Compound A556], the EC50 in test [2] and in test [3] was 1000 to 10000 nM throughout.

Turning to `CC(C)c1c(C(=S)N[C@H]2CCOc3ccccc32)cnn2c(-c3cc(F)cc(Cl)c3Cl)c(Cl)cc12` [Compound A539, 6-chloro-7-(2,3-dichloro-5-fluorophenyl)-N-[(4S)-3,4-dihydro-2H-1-benzopyran-4-yl]-4-(propan-2-yl)pyrrolo[1,2-b]pyridazine-3-carbothioamide], the EC50 lay within 100 to 1000 nM in test [2] and 10 to 100 nM in test [3].

`CC1(F)CN(c2c(C(=O)N[C@H]3CCOc4ccccc43)cnn3c(-c4cc(F)cc(Cl)c4Cl)c(Cl)cc23)C1` [Compound A514]: the EC50 in test [3] was 1000 to 10000 nM. For the compound `Cc1cc2c(C(C)(C)C)c(C(=O)N[C@H]3CCc4ccccc43)cnn2c1-c1cc(Cl)cc(Cl)c1` [Compound A480], the EC50 in test [2] was in the range of 100 to 1000 nM; in test [3], 1000 to 10000 nM. Take `Cc1cc2c(C(C)(C)C)c(C(=O)N[C@H]3CC(C)(C)Oc4ccccc43)cnn2c1-c1cc(F)cc(Cl)c1Cl` [Compound A547]: the EC50 in test [2] and in test [3] was 1000 to 10000 nM in each case.

Consider `CC(C)c1c(C(=O)N[C@H]2CCOc3ccccc32)cnn2c(-c3cc(Cl)cc(Cl)c3)ccc12` [Compound A470], for which the EC50 in test [3] was in the range of 1000 to 10000 nM. Turning to `Cc1cc2c(C(C)C)c(C(=O)NN3CCOc4ccccc43)cnn2c1-c1cc(Cl)cc(Cl)c1` [Compound A497], the EC50 in test [1] and in test [3] was 10 to 100 nM throughout. As to `Cc1cc2c(C(C)(C)C)c(C(=O)N[C@H]3COc4ccccc43)cnn2c1-c1cc(F)cc(Cl)c1Cl` [Compound A545], the EC50 in test [2] was in the range of 1000 to 10000 nM. On to `CC(C)(C)c1c(C(=O)N[C@H]2CCc3ccccc32)cnn2c(-c3cc(Cl)cc(Cl)c3)c(Cl)cc12` [Compound A492], for which the EC50 is 100 to 1000 nM in test [1] and 10 to 100 nM in test [3]. As to `Cc1cc2c(N3CC(C)(C)C3)c(C(=O)N[C@H]3CCOc4ccccc43)cnn2c1-c1cc(F)cc(Cl)c1Cl` [Compound A512], the EC50 in test [1] lay within 1000 to 10000 nM. Turning to `CC1(F)CN(c2c(C(=O)N[C@H]3CCOc4ccccc43)cnn3c(-c4cc(Cl)cc(Cl)c4Cl)c(Cl)cc23)C1` [Compound A509], the EC50 in test [3] lay within 100 to 1000 nM.
